The results in this text go back to ChEMBL document CHEMBL5705899 (Biochem J, 2014).

The target of experiment [1] is Mitogen-activated protein kinase 14 (Homo sapiens) (UniProt Q16539). The experiment in a line: Inhibition of recombinant human N-terminal GST-tagged P38alpha (1 to 360 residues) expressed in Escherichia coli assessed as remaining activity at 1 uM using MBP as substrate incubated for 30 mins in presence of [gamma-33P]ATP by filter binding method relative to control.

Experiment [2] deals with Casein kinase I isoform gamma-2 (Homo sapiens) (UniProt P78368). The experiment in a line: Inhibition of recombinant human N-terminal GST-tagged CK1g2 (1 to 415 residues) expressed in Escherichia coli assessed as remaining activity at 1 uM using RRKDLHDDEEDEAMSITA as substrate incubated for 30 mins in presence of [gamma-33P]ATP by filter binding method relative to control.

In experiment [3] the target is NUAK family SNF1-like kinase 1 (Homo sapiens) (UniProt O60285). The experiment in a line: Inhibition of recombinant human N-terminal His6-tagged NUAK1 (2 to 660 residues) expressed in baculovirus infected Sf21 cells assessed as remaining activity at 1 uM using ALNRTSSDSALHRRR as substrate incubated for 30 mins in presence of [gamma-33P]ATP by filter binding method relative to control.

The target of experiment [4] is Serine/threonine-protein kinase BRSK1 (Homo sapiens) (UniProt Q8TDC3). Nature of the experiment: Inhibition of recombinant human N-terminal His6-tagged BRSK1 (2 to 778 residues) expressed in baculovirus infected Sf21 cells assessed as remaining activity at 1 uM using KKLNRTLSFAEPG as substrate incubated for 30 mins in presence of [gamma-33P]ATP by filter binding method relative to control.

Experiment [5] deals with Serine/threonine-protein kinase pim-1 (Homo sapiens) (UniProt P11309). Nature of the experiment: Inhibition of recombinant human N-terminal His6-tagged PIM1 (2 to 313 residues) expressed in baculovirus infected Sf21 cells assessed as remaining activity at 1 uM using RSRHSSYPAGT as substrate incubated for 30 mins in presence of [gamma-33P]ATP by filter binding method relative to control.

For experiment [6], the target named is Tyrosine-protein kinase BTK (Homo sapiens) (UniProt Q06187). Nature of the experiment: Inhibition of recombinant human N-terminal His6-tagged BTK (2 to 659 residues) expressed in baculovirus infected Sf21 cells assessed as remaining activity at 1 uM using KVEKIGEGTYGVVYK as substrate incubated for 30 mins in presence of [gamma-33P]ATP by filter binding method relative to control.

Experiment [7] concerns the target Mitogen-activated protein kinase 7 (Homo sapiens) (UniProt Q13164). Nature of the experiment: Inhibition of recombinant human N-terminal His6-tagged ERK5 (1 to 816 residues) expressed in baculovirus infected Sf21 cells assessed as remaining activity at 1 uM using MBP as substrate incubated for 30 mins in presence of [gamma-33P]ATP by filter binding method relative to control.

The target of experiment [8] is Proto-oncogene tyrosine-protein kinase Src (Homo sapiens) (UniProt P12931). Nature of the experiment: Inhibition of recombinant human N-terminal His6-tagged SRC (1 to 536 residues) expressed in baculovirus infected Sf21 cells assessed as remaining activity at 1 uM using KVEKIGEGTYGVVYK as substrate incubated for 30 mins in presence of [gamma-33P]ATP by filter binding method relative to control.

Experiment [9] addresses Tyrosine-protein kinase Yes (Homo sapiens) (UniProt P07947). Nature of the experiment: Inhibition of human YES at 1 uM using polyEY as substrate in presence of 33P-ATP by ProQinase assay.
The target in experiment [10] is Tyrosine-protein kinase CSK (Homo sapiens) (UniProt P41240). Nature of the experiment: Inhibition of human CSK at 1 uM using polyEY as substrate in presence of 33P-ATP by ProQinase assay.
In experiment [11] the target is Aurora kinase C (Homo sapiens) (UniProt Q9UQB9). The experiment in a line: Inhibition of human AuroraC at 1 uM using bio-4xCHKT as substrate in presence of 33P-ATP by ProQinase assay.
Experiment [12] concerns the target Tyrosine-protein kinase Tec (Homo sapiens) (UniProt P42680). Nature of the experiment: Inhibition of human TEC at 1 uM using polyEY as substrate in presence of 33P-ATP by ProQinase assay.
Experiment [13] has as its target Eukaryotic elongation factor 2 kinase (Homo sapiens) (UniProt O00418). Nature of the experiment: Inhibition of human EEF2K at 1 uM using RBER-GSK3 as substrate in presence of 33P-ATP by ProQinase assay.
Experiment [14] deals with Mitogen-activated protein kinase kinase kinase 14 (Homo sapiens) (UniProt Q99558). The experiment in a line: Inhibition of human NIK at 1 uM using RBER-CHKtide as substrate in presence of 33P-ATP by ProQinase assay.
For experiment [15], the target named is Proto-oncogene tyrosine-protein kinase Src (Homo sapiens) (UniProt P12931). The experiment in a line: Inhibition of human GST/His-tagged SRC at 1 uM using PolyEY as substrate in presence of 33P-ATP by ProQinase assay.
Experiment [16] has as its target Homeodomain-interacting protein kinase 3 (Homo sapiens) (UniProt Q9H422). The experiment in a line: Inhibition of human HIPK3 at 1 uM using RBER-CHKtide as substrate in presence of 33P-ATP by ProQinase assay.
Experiment [17] has as its target Serine/threonine-protein kinase 24 (Homo sapiens) (UniProt Q9Y6E0). Nature of the experiment: Inhibition of human MST3 at 1 uM using casein as substrate in presence of 33P-ATP by ProQinase assay.
In experiment [18] the target is Mitogen-activated protein kinase kinase kinase 8 (Homo sapiens) (UniProt P41279). Nature of the experiment: Inhibition of human COT at 1 uM using RBER-CHKtide as substrate in presence of 33P-ATP by ProQinase assay.
Experiment [19] concerns the target Ribosomal protein S6 kinase alpha-4 (Homo sapiens) (UniProt O75676). Nature of the experiment: Inhibition of human RPS6KA4 at 1 uM using RBER-CHKtide as substrate in presence of 33P-ATP by ProQinase assay.
In experiment [20] the test system is Dual specificity mitogen-activated protein kinase kinase 6 (Homo sapiens), P52564 [S207D,T211D]. Nature of the experiment: Inhibition of human MKK6 S207D/T211D double mutant at 1 uM using p38-alpha KA as substrate in presence of 33P-ATP by ProQinase assay.
Experiment [21] has as its target Myosin light chain kinase, smooth muscle (Homo sapiens) (UniProt Q15746). Nature of the experiment: Inhibition of human MYLK at 1 uM using RB-S6P as substrate in presence of 33P-ATP by ProQinase assay.
For experiment [22], the target named is Dual specificity protein kinase CLK2 (Homo sapiens) (UniProt P49760). Nature of the experiment: Inhibition of human CLK2 at 1 uM using RBER-GSK3 as substrate in presence of 33P-ATP by ProQinase assay.
Experiment [23] concerns the target PI3K p110 beta/p85 alpha (Homo sapiens) (UniProt P27986+P42338). Nature of the experiment: Inhibition of recombinant human N-terminal His6-tagged PI3Kbeta (1 to 1070 residues)/p85A (1 to 724 residues) expressed in baculovirus expression system at 1 uM using diC8 PIP2 as substrate incubated for 60 mins by ADP-Glo assay. Background: ADP-Glo turns the ADP formed in a reaction into a luminescent signal.

Experiment [24] addresses Phosphatidylinositol 4,5-bisphosphate 3-kinase catalytic subunit delta isoform (Homo sapiens) (UniProt O00329). Nature of the experiment: Inhibition of p100delta (unknown origin) at 1 uM.

Activity calls are given as the source filed them. The rule behind the calls is not given here.

For the molecule `CC(C)(O)CNc1ncc(-c2ccnc(Nc3ccnc(Cl)c3)n2)c(CC2CC2)n1`, the Activity came out at 125% in [1]; 122% in experiment [2]; 112% in experiment [3]; 109% in experiment [4]; 108% in [5]; 108% in [6]. Besides, the Activity worked out at 104% in experiment [7] and 84% in experiment [8]. The inhibition result in [9], in experiment [10], in experiment [11], in experiment [12], in experiment [13] and in experiment [14] was “inactive” throughout. Moreover, the inhibition result in experiment [15], in experiment [16], in experiment [17], in experiment [18], in experiment [19] and in experiment [20] was “inactive” in each case. In addition, the inhibition entry in experiment [21], in [22], in [23] and in experiment [24] was “inactive” in each case.
